Reference: patent US20160158317A1, “Antimicrobial Peptide Variants and Polynucleotides Encoding Same” (Adenium Biotech A/S, priority 2010, published 2016)
Where a SMILES comes first, the peptide text is derived from it. Bridges are numbered along the chain shown (N, C = ends).

Test: Determination of the protein binding (90% serum, 30 kDa filter, HPLC)
Type: in vitro ADME
Conditions: serum
Description: Protein binding assays were performed as follows. The purified peptides were mixed with 90% serum and centrifuged through a 30 kDa filter. The ultra-filtrate and the non filtrated serum samples were quantified by HPLC measurements and the protein binding was subsequently calculated.

Structure (SMILES): CC(C)[C@@H]1NC(=O)CNC(=O)[C@H](CC(N)=O)NC(=O)[C@H](CCCNC(=N)N)NC(=O)[C@H](CCCCN)NC(=O)[C@H](C(C)C)NC(=O)[C@@H]2CSSC[C@H](NC(=O)[C@H](C(C)C)NC(=O)[C@H](CCCNC(=N)N)NC1=O)C(=O)N[C@@H](Cc1c[nH]cn1)C(=O)N[C@@H](CCCNC(=N)N)C(=O)N[C@@H](CCCNC(=N)N)C(=O)N[C@H](C(=O)N[C@@H](CC(N)=O)C(=O)O)CSSC[C@H](NC(=O)[C@H](Cc1ccccc1)NC(=O)CN)C(=O)N[C@@H](Cc1ccccc1)C(=O)N[C@@H](Cc1ccc(O)cc1)C(=O)N[C@@H](C(C)C)C(=O)N2 [compound 137] (H-GFCFYVCVKRNGVRVCHRRCN-OH; disulfide 3-20, 7-16 (inferred); N-terminus and C-terminus assumed)
- fraction unbound: 0.14

Structure (SMILES): CC(C)[C@@H]1NC(=O)CNC(=O)[C@H](C)NC(=O)[C@H](CCCNC(=N)N)NC(=O)[C@H](Cc2ccc(O)cc2)NC(=O)[C@H](C(C)C)NC(=O)[C@@H]2CSSC[C@H](NC(=O)[C@H](C(C)C)NC(=O)[C@H](CCCNC(=N)N)NC1=O)C(=O)N[C@@H](Cc1c[nH]cn1)C(=O)N[C@@H](CCCNC(=N)N)C(=O)N[C@@H](CCCNC(=N)N)C(=O)N[C@H](C(=O)N[C@@H](CC(N)=O)C(=O)O)CSSC[C@H](NC(=O)[C@H](Cc1ccccc1)NC(=O)CN)C(=O)N[C@@H](Cc1c[nH]c3ccccc13)C(=O)N[C@@H](CC(N)=O)C(=O)N[C@@H](C(C)C)C(=O)N2 [compound 230] (H-GFCWNVCVYRAGVRVCHRRCN-OH; disulfide 3-20, 7-16 (inferred); N-terminus and C-terminus assumed)
- fraction unbound: 0.29

Structure (SMILES): CC(C)[C@@H]1NC(=O)CNC(=O)[C@H](CC(N)=O)NC(=O)[C@H](CCCNC(=N)N)NC(=O)[C@H](CCCNC(=N)N)NC(=O)[C@H](C(C)C)NC(=O)[C@@H]2CSSC[C@H](NC(=O)[C@H](C(C)C)NC(=O)[C@H](CCCNC(=N)N)NC1=O)C(=O)N[C@@H](Cc1ccc(O)cc1)C(=O)N[C@@H](CCCNC(=N)N)C(=O)N[C@@H](CCCNC(=N)N)C(=O)N[C@H](C(=O)N[C@@H](CC(N)=O)C(=O)O)CSSC[C@H](NC(=O)[C@H](Cc1ccccc1)NC(=O)CN)C(=O)NCC(=O)N[C@@H](CCCNC(=N)N)C(=O)N[C@@H](C(C)C)C(=O)N2 [compound 172] (H-GFCGRVCVRRNGVRVCYRRCN-OH; disulfide 3-20, 7-16 (inferred); N-terminus and C-terminus assumed)
- fraction unbound: 0.12

Structure (SMILES): CC(C)[C@@H]1NC(=O)CNC(=O)[C@H](CC(N)=O)NC(=O)[C@H](CCCNC(=N)N)NC(=O)[C@H](CCCCN)NC(=O)[C@H](C(C)C)NC(=O)[C@@H]2CSSC[C@H](NC(=O)[C@H](CCCCN)NC(=O)[C@H](CCCNC(=N)N)NC1=O)C(=O)N[C@@H](Cc1ccc(O)cc1)C(=O)N[C@@H](CCCNC(=N)N)C(=O)N[C@@H](CCCNC(=N)N)C(=O)N[C@H](C(=O)N[C@@H](CC(N)=O)C(=O)O)CSSC[C@H](NC(=O)[C@H](Cc1ccccc1)NC(=O)CN)C(=O)N[C@@H]([C@@H](C)O)C(=O)N[C@@H](Cc1ccc(O)cc1)C(=O)N[C@@H](C(C)C)C(=O)N2 [compound 195] (H-GFCTYVCVKRNGVRKCYRRCN-OH; disulfide 3-20, 7-16 (inferred); N-terminus and C-terminus assumed)
- fraction unbound: 0.05

Structure (SMILES): CC(C)[C@@H]1NC(=O)CNC(=O)[C@H](CC(N)=O)NC(=O)[C@H](CCCNC(=N)N)NC(=O)[C@H](Cc2ccc(O)cc2)NC(=O)[C@H](C(C)C)NC(=O)[C@@H]2CSSC[C@H](NC(=O)[C@H](C)NC(=O)[C@H](CCCNC(=N)N)NC1=O)C(=O)N[C@@H](Cc1ccc(O)cc1)C(=O)N[C@@H](CCCNC(=N)N)C(=O)N[C@@H](CCCNC(=N)N)C(=O)N[C@H](C(=O)N[C@@H](CC(N)=O)C(=O)O)CSSC[C@H](NC(=O)[C@H](Cc1ccccc1)NC(=O)CN)C(=O)N[C@@H](Cc1c[nH]c3ccccc13)C(=O)N[C@@H](CCCNC(=N)N)C(=O)N[C@@H](C)C(=O)N2 [compound 319] (H-GFCWRACVYRNGVRACYRRCN-OH; disulfide 3-20, 7-16 (inferred); N-terminus and C-terminus assumed)
- fraction unbound: 0.6

Structure (SMILES): CC(C)[C@@H]1NC(=O)CNC(=O)[C@H](CC(N)=O)NC(=O)[C@H](CCCNC(=N)N)NC(=O)[C@H](Cc2ccc(O)cc2)NC(=O)[C@H](C(C)C)NC(=O)[C@@H]2CSSC[C@H](NC(=O)[C@H](C(C)C)NC(=O)[C@H](CCCNC(=N)N)NC1=O)C(=O)N[C@@H](CO)C(=O)N[C@@H](CCCNC(=N)N)C(=O)N[C@@H](CCCNC(=N)N)C(=O)N[C@H](C(=O)N[C@@H](CC(N)=O)C(=O)O)CSSC[C@H](NC(=O)[C@H](Cc1ccccc1)NC(=O)CN)C(=O)N[C@@H](Cc1ccc(O)cc1)C(=O)N[C@@H](CCCNC(=N)N)C(=O)N[C@@H](C(C)C)C(=O)N2 [compound 211] (H-GFCYRVCVYRNGVRVCSRRCN-OH; disulfide 3-20, 7-16 (inferred); N-terminus and C-terminus assumed)
- fraction unbound: 0.04

Structure (SMILES): CC(C)[C@@H]1NC(=O)[C@@H]2CSSC[C@H](NC(=O)[C@H](CO)NC(=O)[C@H](CCCNC(=N)N)NC(=O)[C@H](C)NC(=O)CNC(=O)[C@H](CC(N)=O)NC(=O)[C@H](CCCNC(=N)N)NC(=O)[C@H](Cc3ccc(O)cc3)NC1=O)C(=O)N[C@@H](Cc1ccc(O)cc1)C(=O)N[C@@H](CCCNC(=N)N)C(=O)N[C@@H](CCCNC(=N)N)C(=O)N[C@H](C(=O)N[C@@H](CC(N)=O)C(=O)O)CSSC[C@H](NC(=O)[C@H](Cc1ccccc1)NC(=O)CN)C(=O)N[C@@H](Cc1c[nH]c3ccccc13)C(=O)N[C@@H](Cc1c[nH]cn1)C(=O)N[C@@H](C(C)C)C(=O)N2 [compound 213] (H-GFCWHVCVYRNGARSCYRRCN-OH; disulfide 3-20, 7-16 (inferred); N-terminus and C-terminus assumed)
- fraction unbound: 0.05

Structure (SMILES): CC(C)[C@@H]1NC(=O)CNC(=O)[C@H](CC(N)=O)NC(=O)[C@H](CCCNC(=N)N)NC(=O)[C@H](Cc2ccc(O)cc2)NC(=O)[C@H](C(C)C)NC(=O)[C@@H]2CSSC[C@H](NC(=O)[C@H](CCC(N)=O)NC(=O)[C@H](CCCNC(=N)N)NC1=O)C(=O)N[C@@H](Cc1ccc(O)cc1)C(=O)N[C@@H](CCCNC(=N)N)C(=O)N[C@@H](CCCNC(=N)N)C(=O)N[C@H](C(=O)N[C@@H](CC(N)=O)C(=O)O)CSSC[C@H](NC(=O)[C@H](Cc1ccccc1)NC(=O)CN)C(=O)N[C@@H](Cc1c[nH]c3ccccc13)C(=O)N[C@@H](Cc1ccc(O)cc1)C(=O)N[C@@H](C(C)C)C(=O)N2 [compound 42] (H-GFCWYVCVYRNGVRQCYRRCN-OH; disulfide 3-20, 7-16 (inferred); N-terminus and C-terminus assumed)
- fraction unbound: 0.04

Structure (SMILES): CC(C)[C@@H]1NC(=O)CNC(=O)[C@H](CC(N)=O)NC(=O)[C@H](CCCNC(=N)N)NC(=O)[C@H](Cc2ccc(O)cc2)NC(=O)[C@H](C(C)C)NC(=O)[C@@H]2CSSC[C@H](NC(=O)CNC(=O)[C@H](CCCNC(=N)N)NC1=O)C(=O)N[C@@H](Cc1ccc(O)cc1)C(=O)N[C@@H](CCCNC(=N)N)C(=O)N[C@@H](CCCNC(=N)N)C(=O)N[C@H](C(=O)N[C@@H](CC(N)=O)C(=O)O)CSSC[C@H](NC(=O)[C@H](Cc1ccccc1)NC(=O)CN)C(=O)N[C@@H](Cc1c[nH]c3ccccc13)C(=O)N[C@@H](Cc1ccc(O)cc1)C(=O)N[C@@H](C(C)C)C(=O)N2 [compound 38] (H-GFCWYVCVYRNGVRGCYRRCN-OH; disulfide 3-20, 7-16 (inferred); N-terminus and C-terminus assumed)
- fraction unbound: 0.07

Structure (SMILES): CC(C)[C@@H]1NC(=O)CNC(=O)[C@H](CC(N)=O)NC(=O)[C@H](CCCNC(=N)N)NC(=O)[C@H](Cc2ccc(O)cc2)NC(=O)[C@H](C(C)C)NC(=O)[C@@H]2CSSC[C@H](NC(=O)[C@H](C(C)C)NC(=O)[C@H](CCCNC(=N)N)NC1=O)C(=O)N[C@@H](CCCNC(=N)N)C(=O)N[C@@H](CCCNC(=N)N)C(=O)N[C@@H](CCCNC(=N)N)C(=O)N[C@H](C(=O)N[C@@H](CC(N)=O)C(=O)O)CSSC[C@H](NC(=O)[C@H](Cc1ccccc1)NC(=O)CN)C(=O)N[C@@H](Cc1ccccc1)C(=O)N[C@@H](Cc1ccc(O)cc1)C(=O)N[C@@H](C(C)C)C(=O)N2 [compound 56] (H-GFCFYVCVYRNGVRVCRRRCN-OH; disulfide 3-20, 7-16 (inferred); N-terminus and C-terminus assumed)
- fraction unbound: 0.06

Structure (SMILES): CC(C)C[C@@H]1NC(=O)CNC(=O)[C@H](CC(N)=O)NC(=O)[C@H](CCCNC(=N)N)NC(=O)[C@H](CO)NC(=O)[C@H](C)NC(=O)[C@@H]2CSSC[C@H](NC(=O)[C@H](C(C)C)NC(=O)[C@H](CCCNC(=N)N)NC1=O)C(=O)N[C@@H](Cc1ccc(O)cc1)C(=O)N[C@@H](CCCNC(=N)N)C(=O)N[C@@H](CCCNC(=N)N)C(=O)N[C@H](C(=O)N[C@@H](CC(N)=O)C(=O)O)CSSC[C@H](NC(=O)[C@H](Cc1ccccc1)NC(=O)CN)C(=O)N[C@@H](Cc1c[nH]c3ccccc13)C(=O)N[C@@H](CCCNC(=N)N)C(=O)N[C@@H](C(C)C)C(=O)N2 [compound 435] (H-GFCWRVCASRNGLRVCYRRCN-OH; disulfide 3-20, 7-16 (inferred); N-terminus and C-terminus assumed)
- fraction unbound: 0.15

Structure (SMILES): CC(C)[C@@H]1NC(=O)[C@H](CCCNC(=N)N)NC(=O)[C@H](Cc2c[nH]cn2)NC(=O)CNC(=O)[C@H](CC(N)=O)NC(=O)[C@H](CCCNC(=N)N)NC(=O)[C@H](Cc2ccc(O)cc2)NC(=O)[C@H](C(C)C)NC(=O)[C@@H]2CSSC[C@H](NC1=O)C(=O)N[C@@H](Cc1c[nH]cn1)C(=O)N[C@@H](CCCNC(=N)N)C(=O)N[C@@H](CCCNC(=N)N)C(=O)N[C@H](C(=O)N[C@@H](CC(N)=O)C(=O)O)CSSC[C@H](NC(=O)[C@H](Cc1ccccc1)NC(=O)CN)C(=O)N[C@@H](Cc1c[nH]c3ccccc13)C(=O)N[C@@H](CC(N)=O)C(=O)N[C@@H](C(C)C)C(=O)N2 [compound 237] (H-GFCWNVCVYRNGHRVCHRRCN-OH; disulfide 3-20, 7-16 (inferred); N-terminus and C-terminus assumed)
- fraction unbound: 0.6
